Test results published in ChEMBL document CHEMBL1949595, “Fluorinated ΔF508-CFTR correctors and potentiators for PET imaging” (Bioorg Med Chem Lett, 2012).

Columns and labels:
[1] = target: Cystic fibrosis transmembrane conductance regulator (Homo sapiens, UniProt P13569, F508DEL); test: Corrector activity at human CFTR delta F508 mutant expressed in rat FRT cells coexpressing fluorescent protein YFP-H148Q/1152L by fluorescence assay; assay type: cell-based
[2] = Potentiation activity at human CFTR delta F508 mutant-mediated iodine flux expressed in rat FRT cells coexpressing fluorescent protein YFP-H148Q/1152L by fluorescence assay; assay type: cell-based

Cystic fibrosis transmembrane conductance regulator, sequence (P13569 as listed by the source): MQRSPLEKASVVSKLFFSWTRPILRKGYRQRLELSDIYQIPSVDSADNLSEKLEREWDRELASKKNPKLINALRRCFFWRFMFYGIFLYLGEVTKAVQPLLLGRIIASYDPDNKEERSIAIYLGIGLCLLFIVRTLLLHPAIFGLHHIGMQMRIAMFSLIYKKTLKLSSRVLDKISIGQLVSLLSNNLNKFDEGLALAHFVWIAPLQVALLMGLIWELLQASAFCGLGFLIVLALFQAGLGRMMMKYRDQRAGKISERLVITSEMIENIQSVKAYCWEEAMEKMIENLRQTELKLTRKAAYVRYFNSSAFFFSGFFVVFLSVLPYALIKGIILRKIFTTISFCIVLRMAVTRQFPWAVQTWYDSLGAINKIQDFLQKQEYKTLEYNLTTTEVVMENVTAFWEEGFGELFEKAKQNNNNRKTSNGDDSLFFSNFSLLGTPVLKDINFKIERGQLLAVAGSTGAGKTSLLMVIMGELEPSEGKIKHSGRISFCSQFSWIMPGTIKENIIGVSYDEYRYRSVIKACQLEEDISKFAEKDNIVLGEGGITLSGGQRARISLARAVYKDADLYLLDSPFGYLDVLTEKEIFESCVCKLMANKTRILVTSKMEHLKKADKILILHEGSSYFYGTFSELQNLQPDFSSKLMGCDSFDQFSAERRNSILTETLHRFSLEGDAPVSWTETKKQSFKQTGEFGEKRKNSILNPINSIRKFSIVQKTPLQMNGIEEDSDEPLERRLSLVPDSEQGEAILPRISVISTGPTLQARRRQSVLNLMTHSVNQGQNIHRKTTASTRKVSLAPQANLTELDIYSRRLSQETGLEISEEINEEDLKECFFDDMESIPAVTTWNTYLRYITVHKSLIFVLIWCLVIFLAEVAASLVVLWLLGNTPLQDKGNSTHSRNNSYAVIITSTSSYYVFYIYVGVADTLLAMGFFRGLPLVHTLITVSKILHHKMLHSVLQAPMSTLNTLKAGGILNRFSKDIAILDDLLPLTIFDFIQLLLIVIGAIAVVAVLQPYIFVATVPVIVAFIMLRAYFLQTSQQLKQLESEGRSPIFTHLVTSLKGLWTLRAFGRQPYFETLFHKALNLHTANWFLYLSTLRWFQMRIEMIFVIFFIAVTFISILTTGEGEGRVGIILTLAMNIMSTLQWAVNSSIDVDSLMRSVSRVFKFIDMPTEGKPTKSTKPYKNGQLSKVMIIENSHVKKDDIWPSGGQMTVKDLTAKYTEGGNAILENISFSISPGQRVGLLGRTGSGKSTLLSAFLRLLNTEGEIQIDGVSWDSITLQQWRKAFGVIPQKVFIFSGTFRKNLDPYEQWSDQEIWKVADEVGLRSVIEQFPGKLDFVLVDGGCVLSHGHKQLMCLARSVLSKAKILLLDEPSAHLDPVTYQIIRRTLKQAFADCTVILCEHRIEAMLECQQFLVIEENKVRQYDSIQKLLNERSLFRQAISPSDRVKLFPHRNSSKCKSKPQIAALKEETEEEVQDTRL

SMILES	EC50 [1] [nM]	EC50 [2] [nM]
Cc1nc(NC(=O)c2ccc([19F])cc2)sc1-c1csc(Nc2cc(N(C)C)ccc2Cl)n1	1400	
COc1ccc(Cl)cc1Nc1nc(-c2sc(NC(=O)c3ccc([19F])cc3)nc2C)cs1	1400	
CN(C(=O)Cc1c[nH]c2ccccc12)[C@H](C(=O)Nc1ccc([19F])cc1)c1ccccc1		90
CN(C(=O)Cc1c[nH]c2ccccc12)[C@H](C(=O)Nc1ccc(-n2cc(CCC[19F])nn2)cc1)c1ccccc1		1100
COc1ccc(Cl)cc1Nc1nc(-c2sc(NC(=O)c3ccccc3)nc2C)cs1	2300	
